Like-named read-outs stand apart in the source and are kept apart here.
Experiments:
[1] = target: T1, form B of monoamine oxydase (Rattus norvegicus, UniProt P19643); experiment: in vitro inhibition of monoamine oxydase form B (homogenized rat brain, (14C) phenylethylamine substrate); type: biochemical, rat (male Sprague-Dawley, entire brain); settings: for Ki: rat brain homogenate, pH 7.4, (14C) phenylethylamine; for KIA /KIB, after 20 min pre-incubation / KIA /KIB, no pre-incubation: selectivity ratio form A / form B
T1 construct: monoamine oxydase in rat brain tissue; from tissue; host or cells: homogenized entire brain of male Sprague-Dawley rat
T1 sequence (P19643 1-520): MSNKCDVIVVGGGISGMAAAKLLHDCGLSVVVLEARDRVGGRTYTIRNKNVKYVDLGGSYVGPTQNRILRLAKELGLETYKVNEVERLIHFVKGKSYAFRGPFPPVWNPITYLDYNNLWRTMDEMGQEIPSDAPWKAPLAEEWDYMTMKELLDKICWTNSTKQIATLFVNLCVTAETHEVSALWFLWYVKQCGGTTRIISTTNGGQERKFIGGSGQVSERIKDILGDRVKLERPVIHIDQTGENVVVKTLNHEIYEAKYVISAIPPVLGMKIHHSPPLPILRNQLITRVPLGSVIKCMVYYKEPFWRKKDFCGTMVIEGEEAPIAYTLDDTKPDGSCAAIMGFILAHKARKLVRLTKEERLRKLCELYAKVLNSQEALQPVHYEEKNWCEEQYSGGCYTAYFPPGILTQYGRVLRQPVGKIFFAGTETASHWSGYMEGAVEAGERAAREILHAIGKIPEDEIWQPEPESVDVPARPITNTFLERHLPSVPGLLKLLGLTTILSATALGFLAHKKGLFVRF
Procedure: (§1) Inhibition constants KIA and KIB on forms A and B of mono-
(§2) amine oxydase (homogenized entire brain of a male rate
(§3) (Sprague-Dawley): 1 g of tissue to 16 ml of phosphate
(§4) The inhibition constants were calculated from the formula: KI =
(§5) as the selective substrates for forms A and B respectively of monoamine oxydase.

[2] = target: T2, form A of monoamine oxydase (Rattus norvegicus, UniProt P21396); experiment: in vitro inhibition of monoamine oxydase form A (homogenized rat brain, (14C) serotonine substrate); type: biochemical, rat (male Sprague-Dawley, entire brain); settings: rat brain homogenate
T2 construct: monoamine oxydase in rat brain tissue; from tissue; host or cells: homogenized entire brain of male Sprague-Dawley rat
T2 sequence (P21396 1-526): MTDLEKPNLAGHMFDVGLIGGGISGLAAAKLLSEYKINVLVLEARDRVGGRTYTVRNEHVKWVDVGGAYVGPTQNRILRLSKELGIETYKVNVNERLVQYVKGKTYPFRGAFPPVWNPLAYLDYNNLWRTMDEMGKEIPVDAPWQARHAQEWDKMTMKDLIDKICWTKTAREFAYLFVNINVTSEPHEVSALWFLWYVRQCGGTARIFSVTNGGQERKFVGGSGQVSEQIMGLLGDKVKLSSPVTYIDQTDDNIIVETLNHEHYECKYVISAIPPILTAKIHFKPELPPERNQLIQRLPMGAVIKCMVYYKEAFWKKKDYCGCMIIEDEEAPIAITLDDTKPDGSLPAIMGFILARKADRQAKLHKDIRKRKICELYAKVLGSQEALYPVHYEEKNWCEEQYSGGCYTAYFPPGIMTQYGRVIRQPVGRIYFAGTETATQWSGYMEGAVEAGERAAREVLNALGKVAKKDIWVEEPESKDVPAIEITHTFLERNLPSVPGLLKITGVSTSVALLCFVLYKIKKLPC
Procedure: Pharmacol., 1983, 35, 161-165.
as §1, §2, §3, §4
CI50 /l + [S]/Km taking [S] = 48 μM for (^14 C)
serotonine and Km = 100 μM, or [S] = 12 μM for (^14 C)
phenylethylamine and Km = 6 μM
as §5

[3] = after 20 min pre-incubation, read-out: Inhibition constant KIB, after 20 min pre-incubation
[4] = after 20 min pre-incubation, pH 7.4, read-out: Inhibition constant KIA, after 20 min pre-incubation
[5] = no pre-incubation, read-out: Inhibition constant KIB, no pre-incubation
[6] = no pre-incubation, pH 7.4, read-out: Inhibition constant KIA, no pre-incubation

Row | SMILES | Ki [1, 3] | KIA /KIB, after 20 min pre-incubation ([1]; after 20 min pre-incubation) | Ki [2, 4] | Ki [1, 5] | KIA /KIB, no pre-incubation ([1]; no pre-incubation) | Ki [2, 6]
1 | COCCCC(O)c1ccc(OCc2cccc(Cl)c2)cc1 (racemic) [compound 280190, [(chloro-3 phenylmethyloxy)-4 phenyl]-1 methoxy-4 butanol-1 (±)] | 79 nM | 69 | 5430 nM | – | – | –
2 | OCCCCc1ccc(OCc2cccc(Cl)c2)cc1 [compound 200123] | – | – | – | 232 nM | > 7 | > 1720 nM
3 | COCC(COc1ccc(OCc2cccc(Cl)c2)cc1)OC (racemic) [compound 200210] | 570 nM | > 3 | > 1720 nM | 403 nM | > 4 | > 1720 nM
4 | COC(CO)COc1ccc(OCc2cccc(Cl)c2)cc1 (racemic) [compound 200213, [(chloro-3 phenylmethyloxy)-4 phenoxy]-3 methoxy-2 propanol-1 (±)] | – | – | – | 543 nM | > 9.5 | > 5170 nM
5 | COC[C@H](O)COc1ccc(OCc2cccc(Cl)c2)cc1 [compound 280040, [(chloro-3 phenylmethyloxy)-4 phenoxy]-1 methoxy-3 propanol-2 S (+)] | – | – | 1650 nM | – | – | –

Source: patent publication US4971995A, “Alkyl or benzyl phenol ethers, their preparation and their therapeutic uses” (Delande S.A., priority 1988, dated 1990)
